# Assay results from patent publication US20250333733A1, “NOVEL TARGETS AGAINST OVARIAN CANCER” (UNIVERSITY OF PUERTO RICO, priority 2022, published 2025).
# Tests used:
# OVCAR3CIS = settings: 72-hr incubation, Alamar Blue, read-out: IC50 cisplatin; cited from earlier work
# OVCAR3CIS cells [1] = experiment: Cell viability, Alamar blue, siRNA alone or with cisplatin; format: cell-based; settings: CIS 2.5 μM, NC-siRNA-transfected OVCAR3CIS cells
# Method: OVCAR3CIS cells (3.0×10^4 cells/mL) or SKOV3ip1CIS (3.0×10^4 cells/mL) were seeded into 12-well plates. […] The next day, 400 cells (OVCAR3CIS) or 1,000 cells (SKOV3ip1CIS) were seeded into 6-well plates and incubated for seven days, fixed and stained with 0.5% crystal violet in methanol. Colonies of at least 50 cells were counted using a light microscope (CKX41: Olympus, Center Valley, PA, USA) with a total magnification of 40x. For cell viability assays, OVCAR3 and OVCAR3CIS (3.0×10^4 cells/mL) or SKOV3ip1and SKOV3ip1CIS (3.5×10^4 cells/mL) were seeded into 96-well plates, and 24 hours later, siRNA transfection was performed as described above. The next day, the transfection mix was replaced with cisplatin (CIS) (2.5 uM final concentration dissolved in regular cell culture media) and after forty-eight hours, the medium was removed, and Alamar blue dye (Invitrogen, Thermo Fisher Scientific, Eugene, OR, USA) was added following the manufacturer's instructions. Optical density (OD) was measured, and percentages of cell viability were calculated after blank OD subtraction. Untreated cells were assessed as 100% cell viability.
# OV90 = settings: 72-hr incubation, Alamar Blue, read-out: IC50 cisplatin; cited from earlier work
# A2780CP20 = settings: 72-hr incubation, Alamar Blue, read-out: IC50 cisplatin; cited from earlier work
# SKOV3IP1 = settings: 72-hr incubation, Alamar Blue, read-out: IC50 cisplatin; cited from earlier work
# OV90CIS = settings: 72-hr incubation, Alamar Blue, read-out: IC50 cisplatin; cited from earlier work
# OVCAR3 = settings: 72-hr incubation, Alamar Blue, read-out: IC50 cisplatin; cited from earlier work
# A2780CIS = settings: 72-hr incubation, Alamar Blue, read-out: IC50 cisplatin; cited from earlier work
# SKOV3IP1CIS [2] = settings: 72-hr incubation, Alamar Blue, read-out: IC50 cisplatin; cited from earlier work
# SKOV3IP1CIS [3] = experiment: Matrigel transwell invasion assay; format: cell-based, human
# Method: (§1) Cell invasion was measured using the Matrigel transwell method. OVCAR3CIS (3.0×10^4 cells/mL) or SKOVip1CIS (3.5×10^4 cells/mL) were seeded into 10 cm Petri dishes and transfected with siRNAs. Twenty-four hours later, serum-free matrigel (BD Biosciences CA, USA) was added onto the upper chambers of 24-well plates and incubated at 37° C. for polymerization. Transfected cells were collected and resuspended in serum-free and re-seeded onto the Matrigel-coated chambers. Medium containing 10% FBS was added to the lower area of the wells, and the plates incubated for 48 hours at 37° C. The medium was removed, and cells that invaded through the matrigel fixed and stained using ProtocolHema 3 Stain Set (Fisher Scientific MI, USA). Invaded cells were microscopically counted using a digital camera to capture images at a 20× resolution. The percentage of cell invasion was calculated using the NC-SIRNA condition as 100% cell invasion.
# SKOV3ip1CIS cells = experiment: Colony formation assay after siRNA transfection; format: cell-based, human; settings: SKOV3ip1CIS (FIG. 8B)
# Method: (§2) SiRNA ON-TARGET plus SMARTpool (a mixture of 4 siRNA as a single tube) and a negative control siRNA (NC-siRNA) (Sigma-Aldrich) were used for transfection studies. CASC10, was targeted by using two siRNAs targeting different regions of the CASC10 RNA (e.g., CASC10-siRNA (1) and CASC10-siRNA (2)). OVCAR3CIS or SKOV3ip1CIS cells were seeded into 12-well plates at 3.0×10^4 cells/mL. The next day, siRNAs were mixed with HiPerfect transfection reagent (Qiagen, Valencia, CA) at a 1:2 ratio (SIRNA: HiPerfect) in serum and antibiotic-free Opti-MEM medium (Gibco) and added to the cells. After twenty-four hours the media was replaced by regular culture media, and cells were cultured and used for further experiments. To assess siRNA transfection efficiency, cells were collected 24 hours after siRNA transfection.
# (§3) OVCAR3CIS cells (3.0×10^4 cells/mL) or SKOV3ip1CIS (3.0×10^4 cells/mL) were seeded into 12-well plates. Twenty-four hours later, cells were transfected with 100 nM (final concentration) of each siRNA. […] Colonies of at least 50 cells were counted using a light microscope (CKX41: Olympus, Center Valley, PA, USA) with a total magnification of 40x. […] Optical density (OD) was measured, and percentages of cell viability were calculated after blank OD subtraction. Untreated cells were assessed as 100% cell viability.
# OVCAR3CIS cells [4] = experiment: Matrigel transwell invasion assay; format: cell-based; settings: vs NC-siRNA
# Method: as §1
# CASC10 [5] = experiment: RT-qPCR of CASC10 expression after siRNA transfection in OVCAR3CIS cells; format: cell-based; settings: vs NC-siRNA
# Method: as §2
# (§4) A custom-made 384-well plate containing pre-designed forward and reverse primers was purchased from Bio-Rad (CA, USA). Total RNA was isolated from OVCAR3 and OVCAR3CIS cells using the GenElute Mammalian Total RNA Mini Kit (Millipore-Sigma, MO, USA) following the manufacturer's instructions. […] Fold-changes and cycle threshold (Ct) values were calculated by the instrument's internal software relative to OVCAR3 cells and normalized to B-actin along with controls for gDNA, PCR reaction, RT reaction, and RNA quality.
# CASC10 [6] = experiment: RT-qPCR of CASC10 expression after siRNA transfection in SKOV3ip1 cells; format: cell-based, human; settings: SKOV3ip1 cells as printed
# Method: as §2, §4
# OVCAR3CIS cells [7] = experiment: Colony formation assay after siRNA transfection; format: cell-based; settings: single siRNA, vs NC-siRNA
# Method: as §2
# as §3, with “viability. […]” for “viability.”
Compound,IC50 (OVCAR3CIS) [µM],cell viability (OVCAR3CIS cells [1]),IC50 (OV90) [µM],IC50 (A2780CP20) [µM],IC50 (SKOV3IP1) [µM],IC50 (OV90CIS) [µM],IC50 (OVCAR3) [µM],IC50 (A2780CIS) [µM],IC50 (SKOV3IP1CIS [2]) [µM],reduction of invasion ability (SKOV3IP1CIS [3]) [%],reduction in the number of colonies (SKOV3ip1CIS cells) [%],reduction of invasiveness (OVCAR3CIS cells [4]) [%],decrease of CASC10 expression (CASC10 [5]) [%],decrease of CASC10 relative expression (CASC10 [6]) [%],reduction in the number of colonies (OVCAR3CIS cells [7]) [%]
N.N.[Cl][Pt][Cl] [cisplatin],7.5,reduced the cell viability,3.5,20 to 30,3.9,7.8,2.8,4.3,7.3,–,–,–,–,–,–
"CASC10-siRNA (1): siRNA targeting CASC10 RNA, SEQ ID NO 1 and 2: 5′ GCUAUCUGCUUGAUCCCUU(dT)(dT) 3′ / 5′ AAGGGAUCAAGCAGAUAGO(dT)(dT) 3′ (chain 1 GCUAUCUGCUUGAUCCCUUNN; chain 2 AAGGGAUCAAGCAGAUAGCNN; 3' dTdT overhangs, chemistry not fully specified)",–,–,–,–,–,–,–,–,–,36,81,42,47,70,42
